# System: ct-DNA
# Test: DNA binding kinetics (osmium bound to precipitated ct-DNA)
# Conditions: 25 μM complex, 250 μM ct-DNA, 37° C.
# Experimental: The osmium compounds were hypothesized to induce cell death through DNA interactions. Therefore, the interaction of 2 or 4 with pUC19 plasmid DNA was investigated using gel electrophoresis; the results of which are as shown in FIG. 6. As the concentration of 2 increased, there was a clear increase in the amount of nicked circular, and a concomitant decrease in the amount of supercoiled, plasmid DNA. At concentrations >250 μM, the bands in the gel smeared and then disappeared. […] The DNA binding kinetics of 2 and 4 were studied by measuring the amount of osmium bound to precipitated ct-DNA; the results of which are as shown in FIG. 7. The half-life of this reaction for 2 was 2 hours.
# The amount of osmium covalently bound to ct-DNA was determined by modification of a previously reported protocol. A solution of ct-DNA (0.25 mM, nucleotide) was incubated with 2 or 4 at a bp:metal complex ratio of 5:1 at 37° C. in 1 mM sodium phosphate buffer, pH 7.4, containing 3 mM NaCl. At certain time points, a 250 μL aliquot was removed and the DNA was precipitated by adding 10 μL of NaCl (5 M) and 1.0 mL of EtOH (stored at 4° C.). The solution was centrifuged to remove DNA, and the concentration of unbound osmium was determined by GF-AAS.
smiles,measurement,value
"[N]#[Os]1([Cl])([Cl])([Cl])[N]2C=CC=c3ccc4c(c32)[N]1C=CC=4 [Complex 2, OsN(1,10-phenanthroline)Cl3]",half-life of ct-DNA binding reaction,2 h

# From patent US10662210B2, “Compositions and methods comprising osmium for the treatment of cancers” (Massachusetts Institute of Technology, priority 2014, dated 2020)
